From patent US20150342954A1, “2-BENZYL, 3-(PYRIMIDIN-2-YL) SUBSTITUTED PYRAZOLES USEFUL AS SGC STIMULATORS” (IRONWOOD PHARMACEUTICALS, INC., priority 2011, published 2015)
Where two headings read alike, the source gives them in different places.

Key:
[1] = molecular target: T1, soluble guanylate cyclase (sGC) (Homo sapiens, UniProt Q02108+Q02153); assay: sGC-HEK-cGMP assay (run with SNP incubation); type: cell-based; conditions: for Emax: 10 μM SNP, 100% = 30 μM BAY 41-2272 with 10 μM SNP, read-out: HEK assay Emax-unconstrained (Percent); for HEK MEC-10: concentration that would elicit 10% of the Emax in the presence of 10 μM SNP; for EC50: in the presence of 10 μM SNP
T1 construct: endogenously expressing soluble guanylate cyclase (sGC); endogenous in cells; host or cells: HEK293
T1 sequence (Q02153 1-619): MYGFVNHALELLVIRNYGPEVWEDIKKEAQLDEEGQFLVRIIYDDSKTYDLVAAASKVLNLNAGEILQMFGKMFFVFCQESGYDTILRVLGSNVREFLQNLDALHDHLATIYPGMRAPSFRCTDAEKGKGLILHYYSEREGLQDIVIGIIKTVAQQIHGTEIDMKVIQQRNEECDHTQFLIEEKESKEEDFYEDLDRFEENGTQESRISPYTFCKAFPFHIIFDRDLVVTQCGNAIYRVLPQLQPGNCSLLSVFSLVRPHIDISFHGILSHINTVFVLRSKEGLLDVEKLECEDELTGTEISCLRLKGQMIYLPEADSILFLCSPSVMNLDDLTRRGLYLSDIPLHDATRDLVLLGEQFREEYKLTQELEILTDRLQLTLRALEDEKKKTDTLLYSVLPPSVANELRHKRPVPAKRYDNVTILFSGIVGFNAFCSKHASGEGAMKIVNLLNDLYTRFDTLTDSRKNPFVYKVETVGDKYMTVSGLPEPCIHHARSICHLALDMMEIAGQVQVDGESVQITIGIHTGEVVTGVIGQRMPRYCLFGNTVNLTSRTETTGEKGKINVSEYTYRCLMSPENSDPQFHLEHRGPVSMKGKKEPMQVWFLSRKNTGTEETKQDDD
T1 sequence (Q02108 1-690): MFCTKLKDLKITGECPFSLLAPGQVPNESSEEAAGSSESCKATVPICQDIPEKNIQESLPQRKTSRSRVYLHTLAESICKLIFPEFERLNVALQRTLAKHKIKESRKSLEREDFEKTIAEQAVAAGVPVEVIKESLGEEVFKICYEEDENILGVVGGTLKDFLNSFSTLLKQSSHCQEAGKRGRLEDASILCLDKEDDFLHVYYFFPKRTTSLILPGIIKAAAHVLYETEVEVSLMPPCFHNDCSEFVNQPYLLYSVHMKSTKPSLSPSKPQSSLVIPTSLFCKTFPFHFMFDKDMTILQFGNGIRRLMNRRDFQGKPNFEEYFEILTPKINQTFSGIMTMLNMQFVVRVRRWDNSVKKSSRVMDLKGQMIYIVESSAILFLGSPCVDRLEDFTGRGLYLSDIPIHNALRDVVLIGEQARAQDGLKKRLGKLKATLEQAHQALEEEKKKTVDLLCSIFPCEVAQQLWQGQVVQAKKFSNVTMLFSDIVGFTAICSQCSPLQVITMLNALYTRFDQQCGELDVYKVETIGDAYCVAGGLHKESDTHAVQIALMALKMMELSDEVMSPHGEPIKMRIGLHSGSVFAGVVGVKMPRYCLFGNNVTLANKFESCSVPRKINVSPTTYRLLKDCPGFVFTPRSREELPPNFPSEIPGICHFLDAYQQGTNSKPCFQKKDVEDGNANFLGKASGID
In short: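 HEK293 cells with endogenous sGC were pre-treated 15 min at 37 °C with 0.5 mM IBMX, then exposed to test compound plus sodium nitroprusside for 10 min at 37 °C. Cells were lysed in 0.1 M HCl (4 °C, 30 min), and cGMP was quantified by LC/MS against a standard curve. EC50 values came from concentration-response curves.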

Thoracic aortic rings = assay: Alternative thoracic aortic rings assay (Example 5; original resting tension as 100% inhibition); conditions: rat thoracic aortic rings contracted with phenylephrine; for Aortic Ring Percent Relaxation at 1 μM: compound at 1 μM; for Aortic Ring Percent Relaxation at 3 μM: compound at 3 μM; for Aortic Ring Percent Relaxation at 10 μM: compound at 10 μM; for EC50: read-out: Aortic Ring EC50
Procedure: Thoracic aortic rings were dissected from anesthetized (isoflurane) male Sprague-Dawley rats weighing 275-299 g. Tissues were immediately transferred to ice-cold Krebs-Henseleit solution, which had been aerated with 95% 02 and 5% CO2 for 30 minutes. Following removal of connective tissue, aortic sections were cut into 4 rings (˜2 mm each) and suspended on 2 L-shaped hooks, with one hook fixed at the bottom of the tissue bath (Schuler Organ Bath, Harvard Apparatus) and the other connected to a force transducer (F30 Force Transducer, Harvard Apparatus). Baths contained Krebs Henseleit solution (10 mL) heated to 37° C. and aerated with 95% 02 and 5% CO2. Rings were brought to an initial tension of 0.3-0.5 g and gradually raised to a resting tension of 1.0 g over 60 minutes. Rings were rinsed with Krebs Henseleit solution (heated to 37° C. and aerated with 95% 02 and 5% CO2) at 15 minute intervals until a stable baseline was obtained. Rings were considered to be stable after a resting tension of 1.0 g was maintained (for approximately 10 minutes) without need for adjustment. Rings were then contracted with 100 ng/mL phenylephrine by adding 100 μL of a 10 μg/mL phenylephrine stock solution. Tissues achieving a stable contraction were then treated in a cumulative, dose dependent manner with test compounds prepared in dimethylsulfoxide (DMSO). In some cases, tissues were rinsed three times over a 5 minute period with Krebs-Heinseleit's solution (heated to 37° C. and aerated with 95% 02 and 5% CO2), allowed to stabilize at baseline, and then used for characterization of other test articles or DMSO effects. All data were collected using the HSE-ACAD software provided by Harvard Apparatus. […] EC50 values were calculated from concentration-response curves generated with GraphPad Prism Software.
Biological Activity Measurement by the Thoracic Aortic Rings Assay
The biological data for some of a compound of Table I, in comparison with the known compound, BAY 41-2272, as the reference compound, determined by the thoracic aorta ring assay of Example 5 are presented in Table 6 below.

[2] = molecular target: T2, Human soluble guanylate cyclase enzyme (hsGC) (Homo sapiens, UniProt Q02108+Q02153); assay: Purified human sGC enzyme activity assay (without SNP); type: biochemical; conditions: compound at 30 μM, absence of SNP, fold over DMSO control
T2 construct: purchased Enzo Inc. ALX-201-177
T2 sequence (Q02153 1-619): T1 sequence (Q02153 1-619)
T2 sequence (Q02108 1-690): T1 sequence (Q02108 1-690)
In short: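 Purified human sGC (5 ng) in 0.1 M Tris pH 8.0, 2 mM DTT, 2 mM MgCl2, 300 μM GTP, 1 mM IBMX, with compound at 10 or 30 μM final, 30 min at 37° C.; methanol-stopped. cGMP quantified against a standard curve; specific activity expressed as fold-change over DMSO control.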

[3] = molecular target: T2, Human soluble guanylate cyclase enzyme (hsGC); assay: Purified human sGC enzyme synergy assay in the presence of 1 μM sodium nitroprusside (SNP); type: biochemical; conditions: compound at 30 μM, presence of 1 μM SNP
In short: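 Purified hsGC (5 ng) incubated 30 min at 37 °C with compound (10 or 30 μM final) in Tris pH 8.0, 300 μM GTP, 1 mM IBMX, 2 mM MgCl2, with or without 1 μM SNP; stopped with cold methanol. cGMP quantified against standard curve; specific activity expressed as fold-change over DMSO control.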

[4] = Table 3A, top of concentration-response curve not fitted to 100%
[5] = Table 3D, read-out: HEK assay EC50
[6] = top of concentration-response curve not fitted to 100%, Table 3D, read-out: HEK assay EC50-unconstrained
[7] = Table 3B, top of concentration-response curve not fitted to 100%
[8] = Table 3E, read-out: HEK assay EC50
[9] = top of concentration-response curve not fitted to 100%, Table 3E, read-out: HEK assay EC50-unconstrained

| SMILES | Emax [1, 4] | HEK MEC-10 ([1]; Table 3D) | EC50 [1, 5] | EC50 [1, 6] | Aortic Ring Percent Relaxation at 1 μM (Thoracic aortic rings) | Aortic Ring Percent Relaxation at 3 μM (Thoracic aortic rings) | Aortic Ring Percent Relaxation at 10 μM (Thoracic aortic rings) | EC50 (Thoracic aortic rings) | Emax [1, 7] | HEK MEC-10 ([1]; Table 3E) | EC50 [1, 8] | EC50 [1, 9] | Enzyme Activity (increase at 30 μM without SNP) ([2]; Table 5B) | Enzyme Activity (increase at 30 μM with SNP) ([3]; Table 5B) | further results |
| --- | --- | --- | --- | --- | --- | --- | --- | --- | --- | --- | --- | --- | --- | --- | --- |
| CC1(C(=O)Nc2cnc(-c3cc(-c4ccon4)n(Cc4cccc(F)c4F)n3)nc2N)CC1 [Compound 10] | 100 to 120% | A (0.001 to <0.01 μM) | < 20 µM | 0.01 to 0.5 µM | G (100 to <120%) | G (100 to <120%) | G (100 to <120%) | < 2 µM |  |  |  |  |  |  |  |
| N#CC1(C(=O)Nc2cnc(-c3cc(-c4ncco4)n(Cc4ccccc4F)n3)nc2N)CC1 [Compound 47, N-(4-amino-2-(1-(2-fluorobenzyl)-5-(oxazol-2-yl)-1H-pyrazol-3-yl)pyrimidin-5-yl)-1-cyanocyclopropanecarboxamide] | 100 to 120% | B (0.01 to <0.1 μM) | < 20 µM | 0.01 to 0.5 µM | E (60 or <80%) | F (80 to <100%) | G (100 to <120%) | < 2 µM |  |  |  |  |  |  |  |
| Oc1nc(-c2cc(-c3ccon3)n(Cc3cccc(F)c3F)n2)ncc1F [Compound 1] | 60 to 80% | B (0.01 to <0.1 μM) | < 20 µM | 0.01 to 0.5 µM | F (80 to <100%) | G (100 to <120%) | G (100 to <120%) | < 2 µM |  |  |  |  |  |  |  |
| O=c1ccnc(-c2cc(-c3ccon3)n(Cc3cccc(Cl)c3F)n2)[nH]1 [Compound 81] |  |  |  |  |  |  |  |  | 40 to 60% | C (0.1 to <1 μM) | 40 to 60 µM | 1 to 5 µM | C (5 to <10 fold increase) | D (10 or <20 fold increase) |  |
| Nc1ccnc(-c2cc(-c3ccon3)n(Cc3cc(F)ccc3F)n2)n1 [Compound 73] |  |  |  |  |  |  |  |  | 60 to 80% | C (0.1 to <1 μM) | 60 to 100 µM | 0.5 to 1 µM | D (10 or <20 fold increase) | D (10 or <20 fold increase) |  |
| Cn1[nH]c2nc(-c3cc(-c4ccon4)n(Cc4ccccc4F)n3)ncc2c1=O [Compound 112] |  |  |  |  |  |  |  |  |  |  |  |  |  |  | Emax ([1]; Table 3C, top of concentration-response curve not fitted to 100%): 60 to 80%; HEK MEC-10 ([1]; Table 3F): E (10 to 50 μM); EC50 ([1]; Table 3F, read-out: HEK assay EC50): 60 to 100 µM; EC50 ([1]; top of concentration-response curve not fitted to 100%, Table 3F, read-out: HEK assay EC50-unconstrained): 10 to 50 µM; Enzyme Activity (increase at 30 μM without SNP) ([2]; Table 5C): A (no increase to <2 fold increase); Enzyme Activity (increase at 30 μM with SNP) ([3]; Table 5C): B (2 to <5 fold increase) |
| O=c1[nH]c(-c2cc(-c3ccon3)n(Cc3ccc(F)cc3F)n2)ncc1F [Compound 70] |  |  |  |  |  |  |  |  | 40 to 60% | C (0.1 to <1 μM) | 40 to 60 µM | 0.01 to 0.5 µM | C (5 to <10 fold increase) | D (10 or <20 fold increase) |  |
| O=c1[nH]c(-c2cc(-c3ccon3)n(Cc3cccc(Cl)c3F)n2)ncc1F [Compound 77] |  |  |  |  |  |  |  |  | 60 to 80% | C (0.1 to <1 μM) | 60 to 100 µM | 0.01 to 0.5 µM | C (5 to <10 fold increase) | E (20 to 30 fold increase) |  |
